Measurements from patent publication US12528815B2, “5-amino-8-(4-pyridyl)-[1,2,4]triazolo[4,3-c]pyrimidin-3-one compounds for use against cancer” (Nxera Pharma UK Limited, priority 2020, dated 2026).
Where two headings read alike, the source gives them in different places.

What was measured:
[1] = biological target: T1, human adenosine A2A receptor (Homo sapiens, UniProt P29274); test: Inhibition binding assay, human adenosine A2A receptor membranes, [3H]ZM241385; conditions: 1 nM [3H]ZM241385, HEK293-hA2A membranes, 25° C., 1 h, IC50 converted to Ki with Cheng-Prusoff
T1 construct: expressed in transfected cells; host or cells: HEK293 cells infected with BacMam
Summary of the method: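 Membranes from BacMam-infected HEK293 cells (0.2 μg A2A, 1.4 μg A1) incubated 1 h at 25° C with test compound and 1 nM [3H]ZM241385 (A2A; 50 mM Tris-HCl pH 7.4) or [3H]DPCPX (A1; plus 100 mM NaCl, 10 mM MgCl2). Nonspecific: 1 μM CGS15943 or DPCPX. Filtration, scintillation; IC50 converted to Ki via Cheng-Prusoff.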

[2] = biological target: T2, human adenosine A1 receptor (Homo sapiens, UniProt P30542); test: Inhibition binding assay, human adenosine A1 receptor membranes, [3H]DPCPX; conditions: 1 nM [3H]DPCPX, 25° C., 1 h; IC50 converted to Ki with Cheng-Prusoff; read-out: A1 pKi (converted)
T2 construct: expressed in transfected cells; host or cells: HEK293 cells infected with BacMam (the same paragraph also labels the preparation CHO-hA1)
T2 sequence (P30542 1-326): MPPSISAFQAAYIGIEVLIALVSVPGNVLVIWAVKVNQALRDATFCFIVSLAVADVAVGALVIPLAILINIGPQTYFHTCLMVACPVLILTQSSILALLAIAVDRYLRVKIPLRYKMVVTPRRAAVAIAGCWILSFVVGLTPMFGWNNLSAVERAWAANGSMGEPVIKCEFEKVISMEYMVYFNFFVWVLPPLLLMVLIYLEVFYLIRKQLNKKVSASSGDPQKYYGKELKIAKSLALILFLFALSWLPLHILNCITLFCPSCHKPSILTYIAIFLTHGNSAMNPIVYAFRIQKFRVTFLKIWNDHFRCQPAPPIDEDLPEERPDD
Experimental: Inhibition binding assays were performed using 0.2 μg of membranes prepared from HEK293 cells infected with BacMam human adenosine A2A receptor or 1.4 μg of membranes prepared from HEK293 cells infected with BacMam human adenosine A1 receptor. Membranes were incubated in 50 mM Tris-HCl (HEK293-hA2A; pH 7.4) or 50 mM Tris-HCl, 100 mM NaCl, 10 mM MgCl2 (CHO-hA1; pH 7.4) in the presence of varying concentrations of test compound and 1 nM [^3H]ZM241385 (HEK293-hA2A) or [^3H]DPCPX (CHO-hA1) at 25° C. for 1 h. The assay was then terminated by rapid filtration onto GF/B grade Unifilter plates using a TomTec cell harvester, followed by 5×0.5 ml washes with ddH2O. Nonspecific binding was defined in the presence of 1 μM CGS15943 (HEK293-hA2A) or 1 μM DPCPX (CHO-hA1). Bound radioactivity was determined by liquid scintillation counting and inhibition curves were analysed using a four-parameter logistic equation. IC50 values were converted to Ki values with the Cheng-Prusoff equation using a KD value derived from saturation binding studies.

T1 sequence (P29274 whole entry): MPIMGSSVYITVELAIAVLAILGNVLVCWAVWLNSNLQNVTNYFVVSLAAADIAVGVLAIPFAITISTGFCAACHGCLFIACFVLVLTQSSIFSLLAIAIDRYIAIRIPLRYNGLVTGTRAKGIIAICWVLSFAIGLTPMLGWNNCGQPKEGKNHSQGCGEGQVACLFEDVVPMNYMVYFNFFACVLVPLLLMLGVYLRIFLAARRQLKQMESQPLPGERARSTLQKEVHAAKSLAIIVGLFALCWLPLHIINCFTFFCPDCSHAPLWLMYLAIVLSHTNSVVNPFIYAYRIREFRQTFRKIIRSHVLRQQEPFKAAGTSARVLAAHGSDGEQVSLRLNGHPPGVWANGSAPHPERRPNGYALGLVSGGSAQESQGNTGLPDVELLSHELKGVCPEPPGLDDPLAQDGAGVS

Ki [2]	Ki ([1]; read-out: A2A pKi (converted))	Compound	Ki ([1]; A2A pKi)
794 nM	1.58 nM	Cc1cc(-c2c(-c3ccc(F)cc3)nc(N)n3c(=O)n(Cc4ccc(F)c(N)n4)nc23)cc(CO)n1 [Example 1-60, 5-amino-2-[(6-amino-5-fluoro-2-pyridyl)methyl]-7-(4-fluorophenyl)-8-[2-(hydroxymethyl)-6-methyl-4-pyridyl]-[1,2,4]triazolo[4,3-c]pyrimidin-3-one]	
20 nM	3.16 nM	Cc1cc(-c2c(-c3ccccc3)nc(N)n3c(=O)n([C@@H]4CCCc5ccc(F)cc54)nc23)cc(C)n1 [Example 1-14, (R)-5-amino-8-(2,6-dimethyl-4-pyridyl)-2-(7-fluorotetralin-1-yl)-7-phenyl-[1,2,4]triazolo[4,3-c]pyrimidin-3-one]	
> 2510 nM	25.1 nM	Cc1cc(-c2c(-c3ccccc3)nc(N)n3c(=O)n(CCN4CCC4)nc23)cc(C)n1 [Example 2-94, 5-amino-2-[2-(azetidin-1-yl)ethyl]-8-(2,6-dimethyl-4-pyridyl)-7-phenyl-[1,2,4]triazolo[4,3-c]pyrimidin-3-one]	
> 3160 nM	158 nM	CCOc1nc(N)n2c(=O)n(CCC(F)(F)F)nc2c1-c1cc(C)nc(C)c1 [Example 3-3, 5-amino-8-(2,6-dimethyl-4-pyridyl)-7-ethoxy-2-(3,3,3-trifluoropropyl)-[1,2,4]triazolo[4,3-c]pyrimidin-3-one]	
251 nM	2.51 nM	Nc1nc(-c2ccccc2)c(-c2cc(Cl)nc(C(F)(F)F)c2)c2nn(Cc3ccc(F)cn3)c(=O)n12 [Example 1-79, 5-amino-8-[2-chloro-6-(trifluoromethyl)-4-pyridyl]-2-[(5-fluoro-2-pyridyl)methyl]-7-phenyl-[1,2,4]triazolo[4,3-c]pyrimidin-3-one]	
631 nM	20 nM	Cc1cc(-c2c(-c3ccccc3)nc(N)n3c(=O)n(Cc4ccc(F)cn4)nc23)cc(N(C)C)n1 [Example 1-71, 5-amino-8-[2-(dimethylamino)-6-methyl-4-pyridyl]-2-[(5-fluoro-2-pyridyl)methyl]-7-phenyl-[1,2,4]triazolo[4,3-c]pyrimidin-3-one]	
126 nM	0.501 nM	COC(=O)C1(Cn2nc3c(-c4cc(C)nc(C)c4)c(-c4ccccc4)nc(N)n3c2=O)CCCC1 [Example 2-29, methyll-[[5-amino-8-(2,6-dimethyl-4-pyridyl)-3-oxo-7-phenyl-[1,2,4]triazolo[4,3-c]pyrimidin-2-yl]methyl]cyclopentanecarboxylate]	
> 3160 nM	631 nM	Cc1cc(-c2c(Cl)nc(N)n3c(=O)n(CCC(F)(F)F)nc23)cc(C)n1 [Example 3-5, 5-amino-7-chloro-8-(2,6-dimethyl-4-pyridyl)-2-(3,3,3-trifluoropropyl)-[1,2,4]triazolo[4,3-c]pyrimidin-3-one]	
> 3980 nM	63.1 nM	Cc1ccc(NC2CCN(CCn3nc4c(-c5cc(C)nc(C)c5)c(-c5ccccc5)nc(N)n4c3=O)CC2)nc1 [Example 1-97, 5-amino-8-(2,6-dimethyl-4-pyridyl)-2-[2-[4-[(5-methyl-2-pyridyl)amino]-1-piperidyl]ethyl]-7-phenyl-[1,2,4]triazolo[4,3-c]pyrimidin-3-one]	
631 nM	1.26 nM	Cc1cc(-c2c(-c3ccc(F)cc3)nc(N)n3c(=O)n(CCC(F)(F)F)nc23)cc(C)n1 [Example 2-33, 5-amino-8-(2,6-dimethyl-4-pyridyl)-7-(4-fluorophenyl)-2-(3,3,3-trifluoropropyl)-[1,2,4]triazolo[4,3-c]pyrimidin-3-one]	
126 nM	1.58 nM	Cc1cc(-c2c(-c3ccccc3)nc(N)n3c(=O)n(CC4CCCCO4)nc23)cc(C)n1 (single isomer, unassigned) [Example 2-82-iso-1, 5-amino-8-(2,6-dimethyl-4-pyridyl)-7-phenyl-2-(tetrahydropyran-2-ylmethyl)-[1,2,4]triazolo[4,3-c]pyrimidin-3-one]	
1 nM	0.316 nM	Cc1cc(-c2c(-c3ccccc3)nc(N)n3c(=O)n(Cc4ccccc4C)nc23)cc(C)n1 [Example 1-17, 5-amino-8-(2,6-dimethyl-4-pyridyl)-2-(o-tolylmethyl)-7-phenyl-[1,2,4]triazolo[4,3-c]pyrimidin-3-one]	
63.1 nM	0.631 nM	Cc1cc(-c2c(-c3ccccc3)nc(N)n3c(=O)n(Cc4ncc(F)cc4Cl)nc23)cc(C)n1 [Example 1-39, 5-amino-2-[(3-chloro-5-fluoro-2-pyridyl)methyl]-8-(2,6-dimethyl-4-pyridyl)-7-phenyl-[1,2,4]triazolo[4,3-c]pyrimidin-3-one]	
> 3980 nM	398 nM	Cc1cc(-c2c(-c3ccccc3)nc(N)n3c(=O)n(CCCN4CCCCC4)nc23)cc(C)n1 [Example 2-111, 5-amino-8-(2,6-dimethyl-4-pyridyl)-7-phenyl-2-[3-(1-piperidyl)propyl]-[1,2,4]triazolo[4,3-c]pyrimidin-3-one]	
501 nM	12.6 nM	Cc1cc(-c2c(-c3ccccc3)nc(N)n3c(=O)n(C[C@H]4CN(C(=O)OC(C)(C)C)CCO4)nc23)cc(C)n1 [Example 2-65, tert-butyl (R)-2-((5-amino-8-(2,6-dimethylpyridin-4-yl)-3-oxo-7-phenyl-[1,2,4]triazolo[4,3-c]pyrimidin-2(3H)-yl)methyl)morpholine-4-carboxylate]	
1000 nM	15.8 nM	Cc1cc(-c2c(-c3ccccc3)nc(N)n3c(=O)n(Cc4ncc(F)cn4)nc23)cc(C)n1 [Example 1-35, 5-amino-8-(2,6-dimethyl-4-pyridyl)-2-[(5-fluoropyrimidin-2-yl)methyl]-7-phenyl-[1,2,4]triazolo[4,3-c]pyrimidin-3-one]	
126 nM	2.51 nM	Cc1cc(-c2c(-c3ccccc3)nc(N)n3c(=O)n(Cc4ccc(F)cn4)nc23)cc(C(F)(F)F)n1 [Example 1-72, 5-amino-2-[(5-fluoro-2-pyridyl)methyl]-8-[2-methyl-6-(trifluoromethyl)-4-pyridyl]-7-phenyl-[1,2,4]triazolo[4,3-c]pyrimidin-3-one]	
158 nM	0.126 nM	COc1cc(-c2c(-c3ccccc3)nc(N)n3c(=O)n(Cc4ccc(F)cn4)nc23)cc(C)n1 [Example 1-78, 5-amino-2-[(5-fluoro-2-pyridyl)methyl]-8-(2-methoxy-6-methyl-4-pyridyl)-7-phenyl-[1,2,4]triazolo[4,3-c]pyrimidin-3-one]	
316 nM	1.58 nM	Cc1cc(-c2c(-c3ccccc3)nc(N)n3c(=O)n(CCCF)nc23)cc(C)n1 [Example 2-8, 5-amino-8-(2,6-dimethyl-4-pyridyl)-2-(3-fluoropropyl)-7-phenyl-[1,2,4]triazolo[4,3-c]pyrimidin-3-one]	
10 nM	0.0794 nM	Cc1cc(-c2c(-c3ccccc3)nc(N)n3c(=O)n(Cc4ccc(F)cc4C)nc23)cc(C)n1 [Example 1-18, 5-amino-8-(2,6-dimethyl-4-pyridyl)-2-[(4-fluoro-2-methyl-phenyl)methyl]-7-phenyl-[1,2,4]triazolo[4,3-c]pyrimidin-3-one]	

Compound	Ki [2]	Ki ([1]; read-out: A2A pKi (converted))	Ki ([1]; A2A pKi)
Cc1cc(-c2c(-c3ccccc3)nc(N)n3c(=O)n(CCN4C5CCCC4CC5)nc23)cc(C)n1 [Example 2-103, 5-amino-2-[2-(8-azabicyclo[3.2.1]octan-8-yl)ethyl]-8-(2,6-dimethyl-4-pyridyl)-7-phenyl-[1,2,4]triazolo[4,3-c]pyrimidin-3-one]	1000 nM		6.31 nM
